# Measured values published in ChEMBL document CHEMBL5096211, “Fluorophenylalkyl-substituted cyanoguanidine derivatives as bacteria-selective MATE transporter inhibitors for the treatment of antibiotic-resistant infections” (Bioorg Med Chem, 2022).
# Target: T1, Multidrug resistance protein HmrM (Haemophilus influenzae) (UniProt P45272)
# T1 sequence (whole entry): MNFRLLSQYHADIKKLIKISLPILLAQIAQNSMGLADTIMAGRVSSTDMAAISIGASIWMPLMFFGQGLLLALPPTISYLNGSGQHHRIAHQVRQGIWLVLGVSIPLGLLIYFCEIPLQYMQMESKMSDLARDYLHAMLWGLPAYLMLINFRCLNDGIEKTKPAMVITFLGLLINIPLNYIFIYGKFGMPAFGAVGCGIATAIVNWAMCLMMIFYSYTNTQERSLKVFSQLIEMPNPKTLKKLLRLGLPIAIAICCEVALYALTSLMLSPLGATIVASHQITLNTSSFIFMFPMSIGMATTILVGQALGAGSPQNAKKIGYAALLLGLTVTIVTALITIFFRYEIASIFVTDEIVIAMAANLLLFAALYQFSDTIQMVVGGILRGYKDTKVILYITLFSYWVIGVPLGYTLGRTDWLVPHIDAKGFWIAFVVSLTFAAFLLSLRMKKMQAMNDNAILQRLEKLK
# Test: Inhibition of Haemophilus influenza HmrM transporter expressed in Escherichia coli KAM32 assessed as inhibition of bacterial resistance to norfloxacin by measuring norfloxacin MIC at 100 uM incubated for 18 hrs by microbroth dilution method
# Conditions: not given
row,Compound,MIC
1,CN/C(=N\C#N)NCCSCc1cc(F)cc(F)c1,0.04 µg/mL
2,CN/C(=N\C#N)NCCSCc1ccccc1F,0.04 µg/mL
3,CN/C(=N\C#N)NCCCCCc1cccc(F)c1,0.02 µg/mL
4,CN/C(=N\C#N)NCCCc1cccc(F)c1,0.04 µg/mL
5,CN/C(=N\C#N)NCCOCc1cccc(F)c1,0.056 µg/mL
6,CN/C(=N\C#N)NCCCCc1cccc(F)c1,0.024 µg/mL
7,Fc1cccc(CSCCNc2ncccn2)c1,0.056 µg/mL
8,CN/C(=N\C#N)NCCSCc1ccc(F)cc1,0.048 µg/mL
9,CN/C(=N\CCSCc1nc[nH]c1C)NC#N,0.056 µg/mL
10,CN/C(=N\C#N)NCCSCc1cccc(F)c1,0.032 µg/mL
11,NCCSCc1cccc(F)c1,0.04 µg/mL
12,CN/C(=N\C#N)NCCc1cccc(F)c1,0.056 µg/mL
13,CS/C(=N\C#N)NCCSCc1cccc(F)c1,0.032 µg/mL
14,N=C(N)NCCSCc1cccc(F)c1,0.048 µg/mL
15,CN/C(=N\C#N)NCCSCc1cccc(C(F)(F)F)c1,0.048 µg/mL
16,CN/C(=N\C#N)NCCSCc1cccc(OC)c1,0.04 µg/mL
17,CN/C(=N\C#N)NCCSCCc1cccc(F)c1,0.028 µg/mL
18,CN/C(=N\C#N)NCCSCc1cccc([N+](=O)[O-])c1,0.032 µg/mL
19,CN/C(=N\C#N)NCCSCc1ccccc1,0.056 µg/mL
20,CN/C(=N\C#N)NCCSCc1ccc(F)c(F)c1,0.048 µg/mL

# Target: T1, Multidrug resistance protein HmrM (Haemophilus influenzae)
# Test: Inhibition of Haemophilus influenza HmrM transporter expressed in Escherichia coli KAM32 assessed as inhibition of bacterial resistance to norfloxacin by measuring reduction in bacterial growth at 100 uM incubated for 18 hrs by microbroth dilution method
# Conditions: not given
row,Compound,Efficacy
1,CN/C(=N\C#N)NCCSCc1cc(F)cc(F)c1,50%
2,CN/C(=N\C#N)NCCSCc1ccccc1F,50%
3,CN/C(=N\C#N)NCCCCCc1cccc(F)c1,92%
4,CN/C(=N\C#N)NCCCc1cccc(F)c1,50%
5,CN/C(=N\C#N)NCCOCc1cccc(F)c1,17%
6,CN/C(=N\C#N)NCCCCc1cccc(F)c1,83%
7,Fc1cccc(CSCCNc2ncccn2)c1,17%
8,CN/C(=N\C#N)NCCSCc1ccc(F)cc1,33%
9,CN/C(=N\CCSCc1nc[nH]c1C)NC#N,17%
10,CN/C(=N\C#N)NCCSCc1cccc(F)c1,67%
11,NCCSCc1cccc(F)c1,50%
12,CN/C(=N\C#N)NCCc1cccc(F)c1,17%
13,CS/C(=N\C#N)NCCSCc1cccc(F)c1,67%
14,N=C(N)NCCSCc1cccc(F)c1,33%
15,CN/C(=N\C#N)NCCSCc1cccc(C(F)(F)F)c1,33%
16,CN/C(=N\C#N)NCCSCc1cccc(OC)c1,50%
17,CN/C(=N\C#N)NCCSCCc1cccc(F)c1,75%
18,CN/C(=N\C#N)NCCSCc1cccc([N+](=O)[O-])c1,67%
19,CN/C(=N\C#N)NCCSCc1ccccc1,17%
20,CN/C(=N\C#N)NCCSCc1ccc(F)c(F)c1,33%

# Target: T2, Multidrug resistance protein MdtK (Escherichia coli (strain K12)) (UniProt P37340)
# T2 sequence (whole entry): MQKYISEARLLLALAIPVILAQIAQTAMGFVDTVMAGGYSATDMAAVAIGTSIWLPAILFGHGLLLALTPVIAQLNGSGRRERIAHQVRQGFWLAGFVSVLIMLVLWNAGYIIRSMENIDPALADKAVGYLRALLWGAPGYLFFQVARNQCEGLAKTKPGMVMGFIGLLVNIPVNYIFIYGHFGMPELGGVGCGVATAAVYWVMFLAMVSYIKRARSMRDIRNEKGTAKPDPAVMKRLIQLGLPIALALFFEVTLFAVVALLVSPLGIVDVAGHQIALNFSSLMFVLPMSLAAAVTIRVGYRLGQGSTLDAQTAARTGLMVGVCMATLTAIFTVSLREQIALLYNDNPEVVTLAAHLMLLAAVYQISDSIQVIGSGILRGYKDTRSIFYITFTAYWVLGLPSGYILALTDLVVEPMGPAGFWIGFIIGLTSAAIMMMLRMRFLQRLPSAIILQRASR
# Test: Inhibition of Escherichia coli MdtK expressed in Escherichia coli KAM32 assessed as inhibition of bacterial growth incubated for 18 hrs by microbroth dilution method
# Conditions: not given
row,Compound,Efficacy
1,CN/C(=N\C#N)NCCCCCc1cccc(F)c1,86%
2,CN/C(=N\C#N)NCCCCc1cccc(F)c1,57%
3,CN/C(=N\C#N)NCCSCCc1cccc(F)c1,57%

# System: Bacteroides thetaiotaomicron
# Test: Inhibition of Bacteroides thetaiotaomicron BexA expressed in Escherichia coli KAM32 assessed as inhibition of bacterial growth incubated for 18 hrs by microbroth dilution method
# Conditions: not given
row,Compound,Efficacy
1,CN/C(=N\C#N)NCCCCCc1cccc(F)c1,0%
2,CN/C(=N\C#N)NCCCCc1cccc(F)c1,0%
3,CN/C(=N\C#N)NCCSCCc1cccc(F)c1,0%

# Target: T3, Multidrug and toxin extrusion protein 1 (Homo sapiens, UniProt Q96FL8)
# T3 sequence (Q96FL8 whole entry): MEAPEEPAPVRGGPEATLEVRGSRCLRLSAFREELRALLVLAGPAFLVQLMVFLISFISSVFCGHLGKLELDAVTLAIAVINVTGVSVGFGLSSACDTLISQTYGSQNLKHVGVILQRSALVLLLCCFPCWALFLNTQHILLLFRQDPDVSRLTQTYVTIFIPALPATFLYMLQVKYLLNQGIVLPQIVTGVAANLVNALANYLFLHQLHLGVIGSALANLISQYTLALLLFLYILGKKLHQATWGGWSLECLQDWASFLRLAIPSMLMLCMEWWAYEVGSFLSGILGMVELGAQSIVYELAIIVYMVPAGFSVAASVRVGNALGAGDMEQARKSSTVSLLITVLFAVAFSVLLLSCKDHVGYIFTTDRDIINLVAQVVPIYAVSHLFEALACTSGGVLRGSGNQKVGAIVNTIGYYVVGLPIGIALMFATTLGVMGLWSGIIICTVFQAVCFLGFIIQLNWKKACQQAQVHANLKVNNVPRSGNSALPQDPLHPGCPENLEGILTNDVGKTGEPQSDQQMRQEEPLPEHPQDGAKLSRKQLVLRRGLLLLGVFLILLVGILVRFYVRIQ
# Test: Inhibition of human MATE1
# Assay type: toxicity
# Conditions: not given
row,Compound,IC50
1,CN/C(=N\C#N)NCCCCCc1cccc(F)c1,> 100 µM
2,Cc1[nH]cnc1CSCCNc1ncccn1,2 µM
3,CN/C(=N\C#N)NCCSCc1cccc(F)c1,> 100 µM
4,CN/C(=N\C#N)NCCSCc1ccccc1,> 100 µM

# System: HEK293
# Test: Cytotoxicity against human HEK293 cells assessed as reduction in cell viability upto 300 uM incubated for 24 hrs by MTT assay
# Assay type: toxicity, cell-based
# Conditions: hek293, 24 h
row,Compound,Activity
1,CN/C(=N\C#N)NCCCCCc1cccc(F)c1,Non-Toxic
